What was measured:
U2OS [1] = test: (§1) Here: values are normalized to the negative (DMSO; defined as 0% autophagy induction) and positive (250nM Torin1; mTOR inhibitor; defined as maximal inducer of autophagy = 100%) control compounds and represented as % of autophagy induction. […] The impact of autophagy induction on cells is complex and depends on the affected target. As such, the magnitude of a phenotype may not be equally mirrored in the %-value of autophagy induction and vice versa. The dynamics of the induction may indicate the mode of activation: e.g. activation via phosphorylation or a signaling cascade may occur fast, while activation via transcription factors may take considerably longer. […] Of note, treatment concentrations may be sub-optimal for specific compounds, leading to false negative annotations.; type: functional, Homo sapiens; conditions: Culturing Media DMEM, 1 % Penicillin/Streptomycin, 10% Fetal bovin serum Add-On: No, Screening Media Control DMEM, Screening Media Samples DMEM
U2OS [2] = test: as §1; type: functional, Homo sapiens; conditions: Culturing Media DMEM, 1 % Penicillin/Streptomycin, 10% Fetal bovin serum Add-On: No, Screening Media Control DMEM, Screening Media Samples DMEM; remark: listed apart in the source
[3] = Compound Concentration 0.5 uM, Timepoint 12 hours
[4] = Compound Concentration 0.5 uM, Timepoint 24 hours
[5] = Compound Concentration 0.5 uM, Timepoint 36 hours
[6] = Compound Concentration 0.5 uM, Timepoint 60 hours
[7] = Compound Concentration 2 uM, Timepoint 12 hours
[8] = Compound Concentration 2 uM, Timepoint 24 hours
[9] = Compound Concentration 2 uM, Timepoint 36 hours
[10] = Compound Concentration 2 uM, Timepoint 60 hours
[11] = Compound Concentration 10 uM, Timepoint 12 hours
[12] = Compound Concentration 10 uM, Timepoint 24 hours
[13] = Compound Concentration 10 uM, Timepoint 36 hours
[14] = Compound Concentration 10 uM, Timepoint 60 hours

Compound	autophagy induction (U2OS [1]; [3])	autophagy induction (U2OS [1]; [4])	autophagy induction (U2OS [1]; [5])	autophagy induction (U2OS [1]; [6])	autophagy induction (U2OS [1]; [7])	autophagy induction (U2OS [1]; [8])	autophagy induction (U2OS [1]; [9])	autophagy induction (U2OS [1]; [10])	autophagy induction (U2OS [1]; [11])	autophagy induction (U2OS [1]; [12])	autophagy induction (U2OS [1]; [13])	autophagy induction (U2OS [1]; [14])	autophagy induction (U2OS [2]; [3])	autophagy induction (U2OS [2]; [4])	autophagy induction (U2OS [2]; [5])	autophagy induction (U2OS [2]; [6])	autophagy induction (U2OS [2]; [7])	autophagy induction (U2OS [2]; [8])	autophagy induction (U2OS [2]; [9])	autophagy induction (U2OS [2]; [10])	further results
Cc1cc(NC(=O)Nc2ccc(N(C)C)cc2)c2cc(F)cc(F)c2n1	-2.687%	-3.664%	-3.669%	114.219%	-0.9187%	-2.555%	-1.904%	114.2%	1.036%	-2.2709%	0.4658%	113.441%	-3.035%	-2.6114%	-4.581%	-2.138%	-10.8002%	-10.6502%	-6.099%	-2.686%	autophagy induction (U2OS [2]; [11]): 2.643%; autophagy induction (U2OS [2]; [12]): 9.654%; autophagy induction (U2OS [2]; [13]): 13.8869%; autophagy induction (U2OS [2]; [14]): 31.5866%
Cc1cc([C@@H](C)Nc2cccc(-c3cc(C)c(C(=O)N[C@@H](C)C(=O)O)c(C)c3)c2)ccc1Cl	-1.358%	-0.4353%	-1.357%	114.287%	0.7384%	3.004%	-0.1787%	114.309%	25.7636%	8.275%	1.804%	114.446%	-5.116%	-3.567%	-5.902%	-1.838%	-9.884%	-6.925%	-1.645%	5.389%	autophagy induction (U2OS [2]; [11]): 8.557%; autophagy induction (U2OS [2]; [12]): 0.1878%; autophagy induction (U2OS [2]; [13]): -1.416%; autophagy induction (U2OS [2]; [14]): -9.482%
CCCCCNC(=O)NS(=O)(=O)c1cc([N+](=O)[O-])ccc1NC1CCCCC1	-2.4637%	-2.287%	-1.179%	114.19%	-2.891%	-2.398%	-2.2883%	114.254%	-6.232%	-4.153%	-3.872%	114.439%	1.311%	2.21%	-1.399%	-21.9841%	12.2747%	3.055%	0.8075%	-5.198%	autophagy induction (U2OS [2]; [11]): 0.1217%; autophagy induction (U2OS [2]; [12]): -4.73%; autophagy induction (U2OS [2]; [13]): -6.08%; autophagy induction (U2OS [2]; [14]): -12.7619%
CC(C)Oc1ccccc1C(=O)Nc1ccccc1C(=O)Nc1cccc(S(=O)(=O)C(F)(F)F)c1	3.012%	-1.737%	-1.42%	114.268%	8.776%	3.511%	2.272%	113.873%	-16.0939%	-18.3481%	-11.2669%	115.068%	-12.7089%	-12.2172%	-12.6004%	-17.6606%	2.367%	0.4504%	-2.457%	-5.945%	autophagy induction (U2OS [2]; [11]): 11.8819%; autophagy induction (U2OS [2]; [12]): 14.0193%; autophagy induction (U2OS [2]; [13]): 13.5851%; autophagy induction (U2OS [2]; [14]): 17.9189%
Cl.Cl.Cl.c1ccc(N2CCN(Cc3nc4ccccc4[nH]3)CC2)nc1	-5.698%	-1.19%	-1.541%	-2680.35%	-2.768%	-5.039%	-4.313%	-2193.41%	1.805%	-0.2364%	-2.475%	114.324%	6.453%	3.88%	1.316%	-5.738%	16.1665%	12.3628%	4.3069%	-1.986%	autophagy induction (U2OS [2]; [11]): 1.702%; autophagy induction (U2OS [2]; [12]): -2.316%; autophagy induction (U2OS [2]; [13]): -1.149%; autophagy induction (U2OS [2]; [14]): 1.595%
COc1ccc(/C=C/CCCCOc2ccc(C(=O)c3cccc(C(=O)O)c3)cc2CCC(=O)O)cc1	-1.627%	-2.76%	-1.525%	114.261%	2.991%	-2.166%	-0.5097%	114.413%	6.765%	1.033%	1.832%	114.224%	4.029%	-1.055%	-5.293%	-4.291%	-4.414%	-2.822%	-3.285%	2.49%	autophagy induction (U2OS [2]; [11]): -13.0779%; autophagy induction (U2OS [2]; [12]): -9.945%; autophagy induction (U2OS [2]; [13]): -0.5172%; autophagy induction (U2OS [2]; [14]): -0.9267%
COc1ccc(Br)cc1S(=O)(=O)NC(=O)/C=C/c1ccccc1Cc1ccc2ccccc2c1	8.106%	0.9964%	-0.06695%	114.397%	-1.7757%	-1.309%	-1.876%	114.114%	-6.0177%	-3.111%	-1.417%	114.143%	10.8816%	4.975%	5.043%	1.1971%	-3.861%	-4.459%	-4.477%	-3.627%	autophagy induction (U2OS [2]; [11]): 11.1214%; autophagy induction (U2OS [2]; [12]): -0.228%; autophagy induction (U2OS [2]; [13]): 3.111%; autophagy induction (U2OS [2]; [14]): -1.844%
N[C@H](C(=O)O)c1ccc(C(=O)O)c(C(=O)O)c1	-6.378%	-5.676%	-3.938%	114.48%	4.454%	-1.856%	-1.714%	114.31%	50.3971%	15.7905%	7.703%	113.866%	-5.827%	-6.791%	-11.2953%	-15.497%	2.006%	-3.7569%	0.8793%	2.43%	autophagy induction (U2OS [2]; [11]): -6.462%; autophagy induction (U2OS [2]; [12]): -8.325%; autophagy induction (U2OS [2]; [13]): -2.853%; autophagy induction (U2OS [2]; [14]): -1.815%

— ChEMBL document CHEMBL5724696, “Autophagy assay results for EUbOPEN Chemogenomics Library” (2024)
